Literature values as cited in article PMC9516332 (Frontiers in Oncology, 2022).
Like-named read-outs stand apart in the source and are kept apart here.

Assays:
Settings in all cases: cited from earlier work
[1] = target: panel of 255 wild-type kinases (Homo sapiens, UniProt Q9Y3S1)
[2] = target: T1, panel of 255 wild-type kinases (Homo sapiens, UniProt Q9BXA7)
T1 sequence (Q9BXA7 1-367): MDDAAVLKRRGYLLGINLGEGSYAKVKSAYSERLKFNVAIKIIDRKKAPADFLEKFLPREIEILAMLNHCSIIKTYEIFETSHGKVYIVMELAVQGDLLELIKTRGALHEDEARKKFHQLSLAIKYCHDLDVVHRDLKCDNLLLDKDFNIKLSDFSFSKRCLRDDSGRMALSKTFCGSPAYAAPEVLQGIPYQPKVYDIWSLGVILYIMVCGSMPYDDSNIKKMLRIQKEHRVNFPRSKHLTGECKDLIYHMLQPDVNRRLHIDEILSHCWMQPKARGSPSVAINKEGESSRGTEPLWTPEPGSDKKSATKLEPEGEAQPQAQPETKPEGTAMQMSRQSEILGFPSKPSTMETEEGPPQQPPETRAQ

[3] = target: panel of 255 wild-type kinases (Homo sapiens, UniProt P09769)
[4] = target: T2, panel of 255 wild-type kinases (Homo sapiens, UniProt Q8TDC3)
T2 sequence (Q8TDC3 1-778): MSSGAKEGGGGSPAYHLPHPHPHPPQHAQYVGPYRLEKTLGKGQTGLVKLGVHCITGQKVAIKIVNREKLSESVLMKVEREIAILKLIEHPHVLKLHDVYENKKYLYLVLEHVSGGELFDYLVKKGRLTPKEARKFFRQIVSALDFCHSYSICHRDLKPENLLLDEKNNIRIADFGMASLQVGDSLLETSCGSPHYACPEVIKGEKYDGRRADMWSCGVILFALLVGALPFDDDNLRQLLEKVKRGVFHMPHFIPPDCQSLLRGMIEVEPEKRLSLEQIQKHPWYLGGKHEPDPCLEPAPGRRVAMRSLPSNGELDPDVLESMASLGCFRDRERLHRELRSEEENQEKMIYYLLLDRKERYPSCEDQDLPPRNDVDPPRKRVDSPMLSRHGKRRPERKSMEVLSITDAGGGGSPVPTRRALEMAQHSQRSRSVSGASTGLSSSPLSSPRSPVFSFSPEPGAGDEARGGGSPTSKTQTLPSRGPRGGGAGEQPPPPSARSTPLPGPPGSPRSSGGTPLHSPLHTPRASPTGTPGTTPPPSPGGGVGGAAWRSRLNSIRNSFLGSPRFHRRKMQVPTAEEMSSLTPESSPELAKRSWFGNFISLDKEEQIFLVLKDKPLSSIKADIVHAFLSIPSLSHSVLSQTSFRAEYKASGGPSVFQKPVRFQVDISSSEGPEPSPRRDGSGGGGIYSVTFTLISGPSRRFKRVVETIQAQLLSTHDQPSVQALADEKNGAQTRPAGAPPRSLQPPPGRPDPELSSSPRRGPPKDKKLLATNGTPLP

[5] = target: panel of 255 wild-type kinases (Homo sapiens, UniProt P07333)
[6] = target: panel of 255 wild-type kinases (Homo sapiens, UniProt P45983)
[7] = kinase WNK2, 1 µmol/L single concentration, ref DOI: 10.1158/1535-7163.MCT-18-0877
[8] = kinase TSSK1, 1 µmol/L single concentration, ref DOI: 10.1158/1535-7163.MCT-18-0877
[9] = kinase FGR, 1 µmol/L single concentration, ref DOI: 10.1158/1535-7163.MCT-18-0877
[10] = BRSK1 kinase assay, 1 µmol/L single concentration, ref DOI: 10.1158/1535-7163.MCT-18-0877
[11] = kinase FMS, 1 µmol/L single concentration, ref DOI: 10.1158/1535-7163.MCT-18-0877
[12] = kinase JNK1, 1 µmol/L single concentration, ref DOI: 10.1158/1535-7163.MCT-18-0877
[13] = kinase WNK2, 1 µmol/L single concentration, ref DOI: 10.1371/journal.pone.0092146
[14] = kinase TSSK1, 1 µmol/L single concentration, ref DOI: 10.1371/journal.pone.0092146
[15] = kinase FGR, 1 µmol/L single concentration, ref DOI: 10.1371/journal.pone.0092146
[16] = BRSK1 kinase assay, 1 µmol/L single concentration, ref DOI: 10.1371/journal.pone.0092146
[17] = kinase FMS, 1 µmol/L single concentration, ref DOI: 10.1371/journal.pone.0092146
[18] = kinase JNK1, 1 µmol/L single concentration, ref DOI: 10.1371/journal.pone.0092146

SMILES	%-inhibition at 1 µmol/L, WNK2 [1, 7]	%-inhibition at 1 µmol/L, TSSK1 [2, 8]	%-inhibition at 1 µmol/L, FGR [3, 9]	%-inhibition BRSK1 [4, 10]	%-inhibition at 1 µmol/L, FMS [5, 11]	%-inhibition at 1 µmol/L, JNK1 [6, 12]	%-inhibition at 1 µmol/L, WNK2 [1, 13]	%-inhibition at 1 µmol/L, TSSK1 [2, 14]	%-inhibition at 1 µmol/L, FGR [3, 15]	%-inhibition BRSK1 [4, 16]	%-inhibition at 1 µmol/L, FMS [5, 17]	other results
CC#CC(=O)N1CCC[C@H]1c1nc(-c2ccc(C(=O)Nc3ccccn3)cc2)c2c(N)nccn12 [acalabrutinib]	0.787%	-7%	3%	-1.79%	8%	-0.882%						
CCc1cc2c(cc1N1CCC(N3CCOCC3)CC1)C(C)(C)c1[nH]c3cc(C#N)ccc3c1C2=O [alectinib]	1.16%	22%	40%	8.48%	19%	3.24%						
COc1cc(N2CCC(N3CCN(C)CC3)CC2)ccc1Nc1ncc(Cl)c(Nc2ccccc2P(C)(C)=O)n1 [brigatinib]												%-inhibition at 1 µmol/L, WNK2 [1]: 0.119%; %-inhibition at 1 µmol/L, TSSK1 [2]: 101%; %-inhibition at 1 µmol/L, FGR [3]: 52%; %-inhibition BRSK1 [4]: 84%; %-inhibition at 1 µmol/L, FMS [5]: 100%; %-inhibition at 1 µmol/L, JNK1 [6]: 40%
Cc1cc(Nc2ncc(Cl)c(Nc3ccccc3S(=O)(=O)C(C)C)n2)c(OC(C)C)cc1C1CCNCC1 [ceritinib]	-1.28%	101%	5%	32%	55%	9%						
O=C(c1ccc(F)c(F)c1Nc1ccc(I)cc1F)N1CC(O)([C@@H]2CCCCN2)C1 [cobimetinib]	5%	7%	-1.29%	-13%	5%	-3%						
C[C@@H](Oc1cc(-c2cnn(C3CCNCC3)c2)cnc1N)c1c(Cl)ccc(F)c1Cl [crizotinib]							-4%	21%	70%	12%	92%	%-inhibition at 1 µmol/L, JNK1 [6, 18]: 0.431%
CC(C)(C)c1nc(-c2cccc(NS(=O)(=O)c3c(F)cccc3F)c2F)c(-c2ccnc(N)n2)s1 [dabrafenib]							0.686%	8%	82%	37%	15%	%-inhibition at 1 µmol/L, JNK1 [6, 18]: -1.12%
C=CC(=O)N1CCC[C@@H](n2nc(-c3ccc(Oc4ccccc4)cc3)c3c(N)ncnc32)C1 [ibrutinib]	5.67%	9%	99%	-7%	19%	-2.33%						
CO[C@@H]1[C@H](N(C)C(=O)c2ccccc2)C[C@H]2O[C@]1(C)n1c3ccccc3c3c4c(c5c6ccccc6n2c5c31)C(=O)NC4 [midostaurin]	0.935%	95%	93%		95%	9%						%-inhibition BRSK1 [4]: 95%
C=CC(=O)Nc1cc(Nc2nccc(-c3cn(C)c4ccccc34)n2)c(OC)cc1N(C)CCN(C)C [osimertinib]	4.6%	76%	5.61%	-12%	47%	-2.12%						
CC(=O)Nc1cccc(-n2c(=O)n(C3CC3)c(=O)c3c(Nc4ccc(I)cc4F)n(C)c(=O)c(C)c32)c1 [trametinib]							1.45%	-5%	-9%	-6%	-4%	%-inhibition at 1 µmol/L, JNK1 [6, 18]: -4.68%
CCCS(=O)(=O)Nc1ccc(F)c(C(=O)c2c[nH]c3ncc(-c4ccc(Cl)cc4)cc23)c1F [vemurafenib]							13%	-4%	93%	-8%	6%	%-inhibition at 1 µmol/L, JNK1 [6]: 1.47%
